# Test results as given in US20240384268A1, “Oligonucleotides” (Hudson Institute of Medical Research, priority 2021, published 2024).
# In the oligonucleotide strings, read from the 5' end, every base follows the letter of its sugar. An asterisk marks phosphorothioate; unmarked linkages are phosphodiester. Other units and linkages are bracketed, terminal groups are in braces. A string of capitals states the bases alone. d = 2'-deoxy (DNA); m = 2'-O-methyl
# Target: T1, TLR8 (Homo sapiens, UniProt Q9NR97)
# T1 sequence (Q9NR97 27-1041): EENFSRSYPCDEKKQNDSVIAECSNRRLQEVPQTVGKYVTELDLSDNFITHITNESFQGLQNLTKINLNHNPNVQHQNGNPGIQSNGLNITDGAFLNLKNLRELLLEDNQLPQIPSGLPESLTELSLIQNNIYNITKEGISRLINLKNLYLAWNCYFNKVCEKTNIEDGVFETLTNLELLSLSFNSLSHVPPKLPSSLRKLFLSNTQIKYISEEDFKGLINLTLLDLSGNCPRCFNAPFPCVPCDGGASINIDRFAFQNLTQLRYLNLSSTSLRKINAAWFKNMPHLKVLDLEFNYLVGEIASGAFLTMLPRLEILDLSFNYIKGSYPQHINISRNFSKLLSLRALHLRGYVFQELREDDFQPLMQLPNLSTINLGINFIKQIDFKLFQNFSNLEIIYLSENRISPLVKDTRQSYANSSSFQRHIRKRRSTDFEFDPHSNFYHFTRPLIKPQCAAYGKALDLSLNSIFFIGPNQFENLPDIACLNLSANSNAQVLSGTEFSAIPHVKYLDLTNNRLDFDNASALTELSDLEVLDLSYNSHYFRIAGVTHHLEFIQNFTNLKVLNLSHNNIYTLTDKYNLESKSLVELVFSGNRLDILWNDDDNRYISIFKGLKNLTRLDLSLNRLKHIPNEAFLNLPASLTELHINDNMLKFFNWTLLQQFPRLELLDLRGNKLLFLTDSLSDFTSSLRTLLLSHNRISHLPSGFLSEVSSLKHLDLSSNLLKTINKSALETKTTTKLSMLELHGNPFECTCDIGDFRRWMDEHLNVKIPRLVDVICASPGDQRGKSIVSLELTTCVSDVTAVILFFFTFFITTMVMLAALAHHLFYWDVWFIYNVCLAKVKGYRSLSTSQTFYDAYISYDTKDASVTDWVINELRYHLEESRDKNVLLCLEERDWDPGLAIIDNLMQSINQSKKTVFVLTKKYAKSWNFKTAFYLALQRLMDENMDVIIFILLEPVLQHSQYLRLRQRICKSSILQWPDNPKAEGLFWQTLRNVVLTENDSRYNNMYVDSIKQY
# Test: HEK-TLR8 NF-κB-luciferase reporter, R848 or Motolimod stimulation (potentiation or inhibition)
# Type: cell-based
# Design: expressed in transfected cells; host or cells: 293XLhTLR8 (HEK293)
# Details: 3mer 2'OMe ASO at 5 uM; HEK-TLR8; value relative to Ligand only = 1.000, NT = 0.000
# Protocol: (§1) In such examples, potentiation of TLR8 activity can be identified by observation of an overall increased TLR8 response of the cell population, or a higher proportion of cells having TLR8-positive activity as compared to a negative control condition in which cells are treated with TLR8 agonist in the absence of the oligonucleotide (or in the presence of an appropriate control non-potentiating agent). In one example, 293XLhTLR8 (referred to as HEK-TLR8) cells are transfected with pNF-κB-Luc4 reporter, incubated with an oligonucleotide, and then stimulated with R848. TLR8 activity can be determined by a luciferase assay, which measures activated NF-κB by luminescence. TLR8 activity can also be analysed by measuring cytokine levels, for example by ELISA.
# as §1, with “inhibition” for “potentiation”, “decreased” for “increased”, “lower” for “higher”, “positive” for “negative”, “inhibitory” for “non-potentiating”
# For cGAS stimulations, cells were treated for indicated duration with ASOs, prior to transfection with ISD70 (human cells) or ISD45 (mouse cells) (the ASOs were not washed off prior to ISD transfection unless otherwise indicated). The cGAS ligands ISD45 (Stetson and Medzhitov, 2006) and ISD70 (also known as VACV-70 (Unterholzner et al., 2010)) (Table 1) were resuspended as follows: 5 1d of sense and 5 μl of antisense strands at 10 μg/μl were added to 90 μl PBS under sterile conditions, heated at 75° C. for 30 min, prior to letting cool down at room temperature and aliquoting (stock at 1 μg/1 l). The ISDs were transfected at a concentration of […] at a ratio of 1 μg:1 μl with Lipofectamine 2000 in Opti-MEM (Thermo Fisher Scientific). HEK-TLR3, HEK-TLR7 and […] were treated with indicated concentration of ASOs for 20-50 min, prior to stimulation with poly(I:C) (Invivogen), R848 (Invivogen), Motolimod (MedChemExpress) and the Class B CpG oligonucleotides ODN 2006 (synthesised by IDT and resuspended in RNase-free TE buffer [Table 1]), respectively. The TLR2/1 agonist PAM3CSK4 (Invivogen), the TLR4 agonist lipopolysaccharide (Invivogen), the Class B CpG oligonucleotides ODN 1826 (synthesised by IDT and resuspended in RNase-free TE buffer), the mouse Sting agonist DMXAA (Cayman) and the human STING agonist (compound #3 from (Raanjulu et al., 2018), referred to as GSK herein—kind gift from Cancer Therapeutics CRC, Australia) were used at indicated concentrations. Aspirin (Sigma—A2093) was resuspended in pure medium to 10 mM, filter sterilised and added to the cells at 2 mM final. All ASOs were synthesised by Integrated DNA Technologies (IDT), and resuspended in RNase-free TE buffer, pH 8.0 (Thermo Fisher Scientific). Cell viability was assessed by adding 1× fresh resazurin solution to the wells (10λ solution made up with 7 mg resazurin [Sigma—R7017] dissolved in 3.5 ml PBS, sterile filtered at […]) for 4 h, prior to reading at with a Fluostar OPTIMA (BMG LABTECH) plate-reader (fluorescence: Excitation 535 nm, Emission 590); wells with medium only and 1× resazurin were used as blanks.
row,Substance,TLR8 HEK 5 uM
1,UAA (mU*mA*mA),0.907
2,UAC (mU*mA*mC),0.813
3,UAG (mU*mA*mG),1.443
4,UAU (mU*mA*mU),0.887
5,UCC (mU*mC*mC),1.292
6,UCU (mU*mC*mU),1.414
7,UGC (mU*mG*mC),1.032
8,UGU (mU*mG*mU),1.120
9,UUA (mU*mU*mA),1.060
10,UUC (mU*mU*mC),0.968
11,"UUG (listed as RNA, chemistry not fully specified)",1.071
12,UUU (mU*mU*mU),0.870
13,"dA*dA*dA (DNA AAA; listed as DNA, chemistry not fully specified)",0.859
14,"dA*dA*dC (DNA AAC; listed as DNA, chemistry not fully specified)",0.696
15,"dA*dA*dG (DNA AAG; listed as DNA, chemistry not fully specified)",0.858
16,"dA*dC*dA (DNA ACA; listed as RNA, chemistry not fully specified)",0.841
17,"dA*dG*dA (DNA AGA; listed as DNA, chemistry not fully specified)",1.520
18,"dA*dG*dC (DNA AGC; listed as DNA, chemistry not fully specified)",1.411
19,"dC*dA*dA (CAA; listed as DNA, chemistry not fully specified)",0.811

row,Substance,TLR8 HEK 5 uM
1,"dC*dA*dC (CAC; listed as RNA, chemistry not fully specified)",0.809
2,"dC*dC*dA (CCA; listed as DNA, chemistry not fully specified)",0.946
3,"dC*dC*dC (CCC; listed as DNA, chemistry not fully specified)",0.756
4,"dC*dC*dG (CCG; listed as DNA, chemistry not fully specified)",0.899
5,"dC*dG*dA (CGA; listed as DNA, chemistry not fully specified)",1.512
6,dG*dC*dC [GCC],0.701
7,dG*dC*dG [GCG],1.191
8,"mAmUmC (mA*mU*mC) [AUC, 3-mer 2′OMe PS oligo]",0.674
9,mCmUmU (antisense mC*mU*mU) [660-3],0.712
10,"mGmAmU (mG*mA*mU) [GAU, 3-mer 2′OMe PS oligo]",0.528
11,"mGmUmA (GUA; all 2'-O-methyl, backbone not given here; further chemistry not fully specified) [shortMut1-3b]",0.792
12,"mGmUmC (mG*mU*mC) [GUC, 3-mer 2′OMe PS oligo]",0.763
13,"mGmUmG (mG*mU*mG) [GUG, 3-mer 2′OMe PS oligo]",0.882
14,"mGmUmU (mG*mU*mU) [GUU, 3-mer 2′OMe PS oligo]",0.668
15,"mUmCmA (mU*mC*mA) [UCA, 3-mer 2′OMe PS oligo]",1.115
16,mUmCmG (antisense mU*mC*mG) [660-3b],2.839
17,"mUmGmA (mU*mG*mA) [UGA, 3-mer 2′OMe PS oligo]",1.331
18,"mUmGmG (mU*mG*mG) [UGG, 3-mer 2′OMe PS oligo]",1.860

# Same assay, conditions: ASO 100 nM; relative to R848 only
row,Substance,"TLR8 100 nM (averaged NF-κB-Luciferase level relative to R848 condition, fold increase)"
1,"TGCACACTTCGTACCC (antisense; LNA-modified, pattern not given here) [CAMSAP1-4916 LNA V1]",0.411
2,"TGGCCTCCCATCTCCT (antisense; LNA-modified, pattern not given here) [HPRT LNA-329 V1]",0.495
3,"TGTGATGGCCTCCCAT (antisense; LNA-modified, pattern not given here) [HPRT LNA-334 V1]",0.582
4,"TTCGTGGGGTCCTTTT (antisense; LNA-modified, pattern not given here) [HPRT LNA-661 V1]",0.621
5,"TTTTGGCTGGGATCAA (antisense; LNA-modified, pattern not given here) [CAMSAP1-4697 LNA KL]",0.542

# Same assay, conditions: ASO 500 nM; relative to R848 only
row,Substance,"TLR8 500 nM (averaged NF-κB-Luciferase level relative to R848 condition, fold increase)"
1,"TGCACACTTCGTACCC (antisense; LNA-modified, pattern not given here) [CAMSAP1-4916 LNA V1]",0.370
2,"TGGCCTCCCATCTCCT (antisense; LNA-modified, pattern not given here) [HPRT LNA-329 V1]",1.127
3,"TGTGATGGCCTCCCAT (antisense; LNA-modified, pattern not given here) [HPRT LNA-334 V1]",1.596
4,"TTCGTGGGGTCCTTTT (antisense; LNA-modified, pattern not given here) [HPRT LNA-661 V1]",3.144
5,"TTTTGGCTGGGATCAA (antisense; LNA-modified, pattern not given here) [CAMSAP1-4697 LNA KL]",1.412

# Same assay, conditions: HEK-TLR8; 5 μM naked 3-mer; Motolimod
row,Substance,effect of 3-mer 2′OMe PS oligos on TLR8 sensing in HEK-TLR8 (in words)
1,"mGmAmU (mG*mA*mU) [GAU, 3-mer 2′OMe PS oligo]",robustly the most potent
2,"mGmUmA (GUA; all 2'-O-methyl, backbone not given here; further chemistry not fully specified) [shortMut1-3b]",robustly inhibitory
3,"mGmUmC (mG*mU*mC) [GUC, 3-mer 2′OMe PS oligo]",robustly inhibitory
4,"mGmUmG (mG*mU*mG) [GUG, 3-mer 2′OMe PS oligo]",robustly inhibitory
5,"mGmUmU (mG*mU*mU) [GUU, 3-mer 2′OMe PS oligo]",robustly inhibitory
6,mUmCmG (antisense mU*mC*mG) [660-3b],potentiated the sensing of R848
7,"mUmGmG (mU*mG*mG) [UGG, 3-mer 2′OMe PS oligo]",potentiated the sensing of R848
